The text below walks through data of PubChem BioAssay (NCI).

The structures appear in SMILES notation.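 Results reflect a 48-hour exposure of cells in 96-well plates to compound at five concentrations. GI50: concentration for 50% inhibition of growth. The concentration for full growth arrest is given as TGI.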

The subject of one experiment is NCI-H23 lung. As to the kind of experiment: growth of human tumour cells (NCI), 48 h.
Turning to `O=C1Oc2cc3c(c4cccc1c24)OCN(c1ccc(Cl)cc1)C3`, the TGI was more than 100 µM.
`COc1cc2c(cc1OC)C1C=NC(C(=O)O)(C2)c2ccccc21` (centres undefined): the TGI is more than 100 µM.
For the compound `O=C1CSC(N2CCN(c3cccc(Cl)c3)CC2)=N1`, the GI50 was more than 100 µM and the TGI is more than 100 µM.
In turn, `Cc1cc(C)nc(NS(=O)(=O)c2ccc(NC(=O)c3cccc4c(=O)c5ccccc5[nH]c34)cc2)n1` returned a TGI of 33.4 µM.
`CCN1CCN(c2nc(NCCNc3ccnc4cc(Cl)ccc34)c3ccccc3n2)CC1`: the GI50 is 2.77 µM and the TGI was determined as 10.7 µM.
On to `COc1ccccc1NC(=O)c1ccc(/C=C/C(=O)c2nccn2C)cc1`, for which the GI50 is 0.561 µM and the TGI was 1.5 µM.
`CCCCCCCCCCCCCCC1OC(=O)c2ccccc21` (centres undefined) registered a TGI of more than 100 µM.
Take `CN(C)CCNC(=O)c1cccc2nc3c(Cl)cccc3nc12`: the TGI turned out to be 20.8 µM.
As for `Cn1cc(C2=C(c3ccc(OC[C@@H](O)CO)cc3)C(=O)NC2=O)c2ccccc21`, the GI50 was more than 25 µM and the TGI is more than 25 µM.
With `O=C1c2ccccc2-c2c1c1cc3c(cc1c(=O)n2CCCCl)OCO3`, the GI50 was 21.5 µM and the TGI amounted to 87.3 µM.
Compound `CC(C)(C)C1=NC(S)NC(CCC(=O)Nc2ccccc2[N+](=O)[O-])=C1` (centres undefined) registered a TGI of more than 100 µM.

The test system of the next experiment is SK-MEL-2 melanoma. As to the kind of experiment: growth of human tumour cells (NCI), 48 h.
Compound `C1CN2N3CCCC23C1` (centres undefined) gave a TGI of more than 100 µM.
`Cc1cccc(C(C)(C)C)c1NC(=O)C(=O)Cc1nc2ccccc2s1`: the TGI was more than 100 µM.
On the same count and under the same terms, next, `CC(=O)OCCc1cccnc1/C=N/O`: more than 100 µM; `CN(C)c1ccc(/C=C2\C[N+](C)(C)C/C(=C\c3ccc(N(C)C)cc3)C2=O)cc1`: 36.1 µM; `O=C1CC[C@H]2CNC(=O)C[C@H]2C1`: more than 100 µM.
With `C#CC(C)(C)Oc1cc(O)c2c(=O)c3ccccc3n(C)c2c1`, the TGI was more than 100 µM.
On the same count and under the same terms, next, `CN1CCCNCCN(CCc2ccccn2)CCCN(C)CC1`: more than 100 µM.
The compound `C[C@]12CCC(=O)C=C1CC[C@@H]1C2CC[C@]2(C)NC(=O)C(C#N)CC12` (some centres undefined) returned a TGI of more than 100 µM.
`COC(=O)c1c(OC)cccc1C(=O)O` yielded a TGI of more than 100 µM.
The same measure, in the same setting: then `O=[N+]([O-])c1ccc(NSc2ccccc2)cc1`, with more than 100 µM.
Still for that read-out and setting: then `O=C1NC(=O)C2C(=O)NC(=O)C1C2(c1ccccc1)c1ccc(Cl)cc1` (centres undefined), with more than 100 µM.
For `O=C1CSC(N2CCN(c3cccc(Cl)c3)CC2)=N1`, the GI50 was more than 100 µM and the TGI is more than 100 µM.
With `CCN1CCN(c2nc(NCCNc3ccnc4cc(Cl)ccc34)c3ccccc3n2)CC1`, the GI50 is 2.07 µM and the TGI was found to be 4.33 µM.
The matching figures for `COc1ccccc1NC(=O)c1ccc(/C=C/C(=O)c2nccn2C)cc1`: 1.9 µM and 10.8 µM.
`CN(C)CCNC(=O)c1cccc2nc3c(Cl)cccc3nc12` returned a TGI of 18.6 µM.
In the case of `Cn1cc(C2=C(c3ccc(OC[C@@H](O)CO)cc3)C(=O)NC2=O)c2ccccc21`, the GI50 was more than 25 µM and the TGI was more than 25 µM.
As for `O=C1c2ccccc2-c2c1c1cc3c(cc1c(=O)n2CCCCl)OCO3`, the GI50 is more than 100 µM and the TGI was more than 100 µM.
The compound `CC(C)(C)C1=NC(S)NC(CCC(=O)Nc2ccccc2[N+](=O)[O-])=C1` (centres undefined) displayed a TGI of more than 100 µM.

For another experiment, the system named is OVCAR-8 ovarian. In words: growth of human tumour cells (NCI), 48 h.
`C1CN2N3CCCC23C1` (centres undefined): the TGI was more than 100 µM.
As to `Cc1cccc(C(C)(C)C)c1NC(=O)C(=O)Cc1nc2ccccc2s1`, the TGI was more than 100 µM.
The same measure, in the same setting: then `CC(=O)OCCc1cccnc1/C=N/O`, with more than 100 µM; and `CN(C)c1ccc(/C=C2\C[N+](C)(C)C/C(=C\c3ccc(N(C)C)cc3)C2=O)cc1`, with 65.7 µM.
For `O=C1CC[C@H]2CNC(=O)C[C@H]2C1`, the TGI is more than 100 µM.
`C#CC(C)(C)Oc1cc(O)c2c(=O)c3ccccc3n(C)c2c1` came in with a TGI of more than 100 µM.
`CN1CCCNCCN(CCc2ccccn2)CCCN(C)CC1` registered a TGI of more than 100 µM.
Still for that read-out and setting: next, `C[C@]12CCC(=O)C=C1CC[C@@H]1C2CC[C@]2(C)NC(=O)C(C#N)CC12` (some centres undefined): more than 100 µM; `COC(=O)c1c(OC)cccc1C(=O)O`: more than 100 µM; `O=[N+]([O-])c1ccc(NSc2ccccc2)cc1`: 45.6 µM.
Regarding `Cc1c(C(=O)/C=C/c2cccc3ccccc23)[n+](=O)c2ccccc2n1[O-]`, the TGI came out at 24.9 µM.
`CC(=O)/C=C/c1cccc(N=S)c1` registered a TGI of 31 µM.
Regarding `O=C1NC(=O)C2C(=O)NC(=O)C1C2(c1ccccc1)c1ccc(Cl)cc1` (centres undefined), the TGI was more than 100 µM.
`O=C(Nc1ccccc1[N+](=O)[O-])c1ccccc1` showed a TGI of more than 100 µM.
In the case of `O=C1Oc2cc3c(c4cccc1c24)OCN(c1ccc(Cl)cc1)C3`, the TGI is more than 100 µM.
Take `COc1cc2c(cc1OC)C1C=NC(C(=O)O)(C2)c2ccccc21` (centres undefined): the TGI is more than 100 µM.
As to `O=C1CSC(N2CCN(c3cccc(Cl)c3)CC2)=N1`, the GI50 is more than 100 µM and the TGI is more than 100 µM.
In the case of `Cc1cc(C)nc(NS(=O)(=O)c2ccc(NC(=O)c3cccc4c(=O)c5ccccc5[nH]c34)cc2)n1`, the TGI stood at 41.1 µM.
As for `CCN1CCN(c2nc(NCCNc3ccnc4cc(Cl)ccc34)c3ccccc3n2)CC1`, the GI50 is 1.89 µM and the TGI was 5.96 µM.
The matching figures for `COc1ccccc1NC(=O)c1ccc(/C=C/C(=O)c2nccn2C)cc1`: 0.916 µM and 10.1 µM.
For the compound `CCCCCCCCCCCCCCC1OC(=O)c2ccccc21` (centres undefined), the TGI was more than 100 µM.
In the case of `CN(C)CCNC(=O)c1cccc2nc3c(Cl)cccc3nc12`, the TGI was more than 44.3 µM.
On to `Cn1cc(C2=C(c3ccc(OC[C@@H](O)CO)cc3)C(=O)NC2=O)c2ccccc21`, for which the GI50 was more than 25 µM and the TGI is more than 25 µM.
For the compound `O=C1c2ccccc2-c2c1c1cc3c(cc1c(=O)n2CCCCl)OCO3`, the GI50 is 22.6 µM and the TGI is more than 100 µM.
On to `CC(C)(C)C1=NC(S)NC(CCC(=O)Nc2ccccc2[N+](=O)[O-])=C1` (centres undefined), for which the TGI was more than 100 µM.
